Data: article PMC7093416, “Selective USP7 inhibition elicits cancer cell killing through a p53-dependent mechanism” (Scientific Reports, 2020)

Tested on: panel of 484 cancer cell lines
Assay: PRISM cancer cell line profiling, 5 days
Assay type: cell-based
Design: AUC: unit not given beside the values
Protocol: Cancer cell line profiling was performed using the Broad’s PRISM platform. Cell treatment and data analysis were performed as described in Yu et al[42]. Raw Luminex signal was converted to AUC values for each cell line as described. The resulting AUC profile for each compound was modeled against DepMap using the limma package in R[71]. Because hotspot mutation analysis was performed against DepMap, TP53 annotations in Fig. 6c,d are directly from DepMap.

With `CN1CCN(CCC(=O)Nc2ccc3c(=O)n(CC4(O)CCN(C(=O)[C@H](CCCNC(=O)c5ccc6c(Cl)c7c(nc6c5)CCCC7)Cc5ccccc5)CC4)cnc3c2)CC1` [XL177B] as the compound, how does the AUC (8MGBA_CENTRAL_NERVOUS_SYSTEM) read?
Its AUC is 1.054.

What about the AUC (22RV1_PROSTATE) of the same compound?
The AUC was 1.093.

And the AUC (42MGBA_CENTRAL_NERVOUS_SYSTEM)?
Its AUC is 1.146.

What about the AUC (253JBV_URINARY_TRACT) of the same compound?
Its AUC is 1.057.

What about the AUC (253J_URINARY_TRACT) of the same compound?
Its AUC is 1.086.

And the AUC (639V_URINARY_TRACT)?
Its AUC is 1.062.

And the AUC (647V_URINARY_TRACT)?
The AUC was 1.143.

And the AUC (769P_KIDNEY)?
The AUC was 1.004.

What about the AUC (786O_KIDNEY) of the same compound?
Its AUC is 1.051.

And the AUC (5637_URINARY_TRACT)?
The AUC was 0.9181.

And the AUC (8305C_THYROID)?
Its AUC is 1.192.

And the AUC (8505C_THYROID)?
Its AUC is 0.9816.

What about the AUC (2313287_STOMACH) of the same compound?
The AUC was 1.329.

And the AUC (A101D_SKIN)?
Its AUC is 1.213.

And the AUC (A172_CENTRAL_NERVOUS_SYSTEM)?
The AUC was 1.079.

What about the AUC (A204_SOFT_TISSUE) of the same compound?
Its AUC is 1.022.

And the AUC (A375_SKIN)?
The AUC was 1.179.

And the AUC (A549_LUNG)?
The AUC was 1.079.

And the AUC (A673_BONE)?
Its AUC is 1.28.

And the AUC (A704_KIDNEY)?
The AUC was 1.217.

And the AUC (A2058_SKIN)?
Its AUC is 1.197.

What about the AUC (A2780_OVARY) of the same compound?
Its AUC is 1.076.

And the AUC (ABC1_LUNG)?
Its AUC is 1.075.

What about the AUC (ACCMESO1_PLEURA) of the same compound?
Its AUC is 0.9927.

And the AUC (ACHN_KIDNEY)?
The AUC was 1.273.

And the AUC (AGS_STOMACH)?
The AUC was 1.102.

And the AUC (AN3CA_ENDOMETRIUM)?
The AUC was 1.099.

And the AUC (ASPC1_PANCREAS)?
The AUC was 1.162.

What about the AUC (BC3C_URINARY_TRACT) of the same compound?
Its AUC is 1.114.

What about the AUC (BCPAP_THYROID) of the same compound?
Its AUC is 1.195.

What about the AUC (BECKER_CENTRAL_NERVOUS_SYSTEM) of the same compound?
Its AUC is 1.058.

And the AUC (BEN_LUNG)?
Its AUC is 1.091.

What about the AUC (BFTC905_URINARY_TRACT) of the same compound?
Its AUC is 1.11.

And the AUC (BFTC909_KIDNEY)?
Its AUC is 1.1037.

And the AUC (BHT101_THYROID)?
The AUC was 1.056.

And the AUC (BICR6_UPPER_AERODIGESTIVE_TRACT)?
The AUC was 0.9836.

What about the AUC (BICR16_UPPER_AERODIGESTIVE_TRACT) of the same compound?
The AUC was 1.161.

What about the AUC (BICR31_UPPER_AERODIGESTIVE_TRACT) of the same compound?
The AUC was 0.9322.

What about the AUC (BICR56_UPPER_AERODIGESTIVE_TRACT) of the same compound?
Its AUC is 0.9864.

And the AUC (BT474_BREAST)?
Its AUC is 1.187.

What about the AUC (BT549_BREAST) of the same compound?
The AUC was 0.9575.

And the AUC (BXPC3_PANCREAS)?
Its AUC is 1.32.

What about the AUC (CADOES1_BONE) of the same compound?
The AUC was 1.116.

And the AUC (CAKI1_KIDNEY)?
The AUC was 1.162.

What about the AUC (CAL12T_LUNG) of the same compound?
Its AUC is 1.

And the AUC (CAL27_UPPER_AERODIGESTIVE_TRACT)?
The AUC was 1.104.

What about the AUC (CAL29_URINARY_TRACT) of the same compound?
The AUC was 1.1383.

And the AUC (CAL51_BREAST)?
The AUC was 1.013.

What about the AUC (CAL54_KIDNEY) of the same compound?
The AUC was 1.167.

And the AUC (CAL62_THYROID)?
Its AUC is 1.094.

What about the AUC (CAL78_BONE) of the same compound?
The AUC was 1.0528.

What about the AUC (CAL120_BREAST) of the same compound?
Its AUC is 0.9632.

And the AUC (CALU1_LUNG)?
Its AUC is 0.8074.

And the AUC (CALU6_LUNG)?
The AUC was 1.057.

And the AUC (CAMA1_BREAST)?
The AUC was 1.095.

And the AUC (CAOV3_OVARY)?
Its AUC is 1.1.

And the AUC (CAPAN2_PANCREAS)?
The AUC was 1.138.

And the AUC (CCFSTTG1_CENTRAL_NERVOUS_SYSTEM)?
The AUC was 0.9645.

And the AUC (CFPAC1_PANCREAS)?
Its AUC is 1.136.

What about the AUC (CHL1_SKIN) of the same compound?
Its AUC is 1.081.

And the AUC (CJM_SKIN)?
Its AUC is 1.284.

What about the AUC (CL34_LARGE_INTESTINE) of the same compound?
The AUC was 1.203.

What about the AUC (COLO668_LUNG) of the same compound?
Its AUC is 1.113.

And the AUC (COLO679_SKIN)?
Its AUC is 1.002.

And the AUC (COLO680N_OESOPHAGUS)?
The AUC was 1.0645.

And the AUC (COLO741_SKIN)?
Its AUC is 1.159.

What about the AUC (COLO783_SKIN) of the same compound?
Its AUC is 1.1.

And the AUC (COLO792_SKIN)?
Its AUC is 1.078.

And the AUC (COLO800_SKIN)?
The AUC was 1.008.

What about the AUC (CORL23_LUNG) of the same compound?
The AUC was 1.07.

What about the AUC (CORL105_LUNG) of the same compound?
The AUC was 1.1478.

And the AUC (COV362_OVARY)?
Its AUC is 1.091.

What about the AUC (COV434_OVARY) of the same compound?
Its AUC is 0.9992.

What about the AUC (DANG_PANCREAS) of the same compound?
Its AUC is 1.066.

What about the AUC (DAOY_CENTRAL_NERVOUS_SYSTEM) of the same compound?
The AUC was 0.9946.

What about the AUC (DBTRG05MG_CENTRAL_NERVOUS_SYSTEM) of the same compound?
The AUC was 1.141.

And the AUC (DETROIT562_UPPER_AERODIGESTIVE_TRACT)?
Its AUC is 1.072.

And the AUC (DKMG_CENTRAL_NERVOUS_SYSTEM)?
The AUC was 1.0187.

What about the AUC (DMS273_LUNG) of the same compound?
The AUC was 1.134.

What about the AUC (DU145_PROSTATE) of the same compound?
Its AUC is 1.137.

What about the AUC (DV90_LUNG) of the same compound?
Its AUC is 0.9062.

And the “∆ (AUC, TP53 mutation vs WT; decreased sensitivity)” value (DepMap TP53 mutation annotation)?
Its value is “not significantly associated”.

And the AUC (EBC1_LUNG)?
The AUC was 1.133.

And the AUC (ECGI10_OESOPHAGUS)?
The AUC was 1.109.

What about the AUC (EFM192A_BREAST) of the same compound?
The AUC was 0.9815.

What about the AUC (EFO21_OVARY) of the same compound?
Its AUC is 1.192.

What about the AUC (EFO27_OVARY) of the same compound?
Its AUC is 1.165.

And the AUC (EN_ENDOMETRIUM)?
The AUC was 1.137.

And the AUC (ES2_OVARY)?
Its AUC is 1.077.

What about the AUC (ESS1_ENDOMETRIUM) of the same compound?
The AUC was 1.338.

What about the AUC (EWS502_BONE) of the same compound?
Its AUC is 1.036.

And the AUC (FADU_UPPER_AERODIGESTIVE_TRACT)?
The AUC was 1.234.

And the AUC (FTC133_THYROID)?
Its AUC is 0.9765.

And the AUC (FTC238_THYROID)?
Its AUC is 0.9864.

And the AUC (G292CLONEA141B1_BONE)?
Its AUC is 1.035.

And the AUC (G361_SKIN)?
The AUC was 1.116.

And the AUC (G401_SOFT_TISSUE)?
The AUC was 0.7376.

And the AUC (G402_SOFT_TISSUE)?
Its AUC is 0.8902.

What about the AUC (GAMG_CENTRAL_NERVOUS_SYSTEM) of the same compound?
The AUC was 1.162.

What about the AUC (GB1_CENTRAL_NERVOUS_SYSTEM) of the same compound?
Its AUC is 1.065.

What about the AUC (GCIY_STOMACH) of the same compound?
Its AUC is 0.9556.

What about the AUC (GCT_SOFT_TISSUE) of the same compound?
Its AUC is 1.093.

What about the AUC (GI1_CENTRAL_NERVOUS_SYSTEM) of the same compound?
The AUC was 0.984.

What about the AUC (GMS10_CENTRAL_NERVOUS_SYSTEM) of the same compound?
The AUC was 0.9403.

And the AUC (GOS3_CENTRAL_NERVOUS_SYSTEM)?
Its AUC is 0.9659.

What about the AUC (GP2D_LARGE_INTESTINE) of the same compound?
The AUC was 1.185.

What about the AUC (H4_CENTRAL_NERVOUS_SYSTEM) of the same compound?
Its AUC is 1.05.

What about the AUC (HARA_LUNG) of the same compound?
Its AUC is 1.202.

What about the AUC (HCC15_LUNG) of the same compound?
The AUC was 1.143.

What about the AUC (HCC38_BREAST) of the same compound?
Its AUC is 1.103.

What about the AUC (HCC44_LUNG) of the same compound?
Its AUC is 1.112.

And the AUC (HCC56_LARGE_INTESTINE)?
Its AUC is 1.103.

What about the AUC (HCC78_LUNG) of the same compound?
The AUC was 1.106.

What about the AUC (HCC95_LUNG) of the same compound?
The AUC was 1.096.

What about the AUC (HCC366_LUNG) of the same compound?
Its AUC is 1.065.

What about the AUC (HCC827_LUNG) of the same compound?
Its AUC is 0.9535.

And the AUC (HCC1143_BREAST)?
Its AUC is 1.163.

What about the AUC (HCC1195_LUNG) of the same compound?
The AUC was 0.8866.

What about the AUC (HCC1359_LUNG) of the same compound?
Its AUC is 1.197.

And the AUC (HCC1419_BREAST)?
The AUC was 1.107.

And the AUC (HCC1428_BREAST)?
The AUC was 0.9597.
